Assays:
[1] = system: CD4+ T cells in PBMC from subjects without T1D; test: CFSE-based proliferation assay, PBMC of subjects without T1D; format: cell-based, human; conditions: CFSE-labelled PBMC, peptide 10 μM, mean CDI
Procedure: (§1) Blood was obtained by venepuncture. Peripheral blood mononuclear cells (PBMC) were isolated over Ficoll-paque (GE Healthcare) and washed twice in phosphate buffered saline (PBS) as described. The CFSE (5,6-carboxyfluorescein diacetate succinimidyl ester) proliferation assays were performed as described previously. CFSE-labelled PBMC were cultured with either: no antigen, full-length C-peptide (^PI33-63), or ^PI33-63 Q38E (referred to as Q6E), ^PI33-63 Q41E (referred to as Q9E), ^PI33-63 Q54E, (referred to as Q22E) ^PI33-63 Q63E (referred to as Q31E), or ^PI33-63 with all glutamines substituted for glutamic acid, (referred to as QallE). See Supplementary Table 5 for a detailed description of the peptides. Each peptide was used at a final concentration of 10 μM. Positive controls were tetanus toxoid (TT 10LfU/ml, Statens Serum Institut) and/or anti-CD3 (OKT3 10 ng/ml). The results are presented as a cell division index (CDI), the ratio of the number of CD4^+ T cells that have proliferated in the presence of antigen to the number of CD4^+ T cells that have proliferated in the absence of antigen.
(§2) Our analysis of CD4^+ Jurkat lines expressing TCRs derived from primary CD4^+ T cells used TCRs derived from CD4^+ T cells that were selected for their specificity for WT C-peptide. […] This may be due to Q to E substitutions being poorly tolerated by the TCRs that were selected based on their recognition of WT C-peptide. To address this, we measured polyclonal CD4^+ T-cell responses in PBMC from people with recent onset type 1 diabetes. (see Supplementary Tables 5 and 6 for details of each subject). […] Next, in a separate cohort we investigated CD4^+ T-cell responses to the five C-peptide variants with individual Q to E substitutions in PBMC of people with recent onset type 1 diabetes (Fig. 3B). We found, as expected, that a majority of PBMC samples responded to WT C-peptide, but responses to Q to E substituted C-peptide variants were not stronger, in fact in most cases they were weaker, than responses to WT C-peptide. (See Supplementary Tables 7–9 for results from individual subjects). Finally, we asked if people without T1D, but who carried the T1D-associated HLA alleles, HLA-DQ2, or HLA-DQ8 had stronger responses to Q to E substituted C-peptide variants (Fig. 3C). Here few subjects had response to WT C-peptide and only a minority had greater responses to Q to E substituted variants of C-peptide, compared to WT C-peptide.
(§3) Fig. 3 PBMC responses to WT and deamidated C-peptide variants. (A) Proliferation in responses, measured as a cell division index (CDI) to WT or QallE C-peptide were compared in 8 PBMC from 8 people with recent onset T1D. Responses from the same individual are linked. […] (B) PBMC proliferation responses to WT and C-peptide variants with individual Q to E substitution and QallE from people with recent onset T1D (B) and HLA matched control subjects who don't have T1D (C). Only difference which reached statistical significance are marked (* = P < 0.05). For responses in subjects without T1D, none of the differences between groups reached statistical significance, p > 0.05, by Wilcoxon matched pairs signed rank test of Log 10 transformed CDI data. Each point is a different individual, bars show the mean and the standard deviation for each group.

[2] = system: CD4+ T cells in PBMC from people with recent onset T1D; test: CFSE-based proliferation assay, PBMC of people with T1D; format: cell-based, human; conditions: peptide 10 μM; for Cell division index (CDI): CFSE-labelled PBMC
Procedure: as §1, §2, §3

EAEDLEVGEVELGGGPGAGSLEPLALEGSLE [QallE, C-peptide with all four glutamines substituted for glutamic acid]
Cell division index (CDI) ([1]; donor 1 without T1D): 15.8
Cell division index (CDI) ([1]; donor 2 without T1D): 1.2
Cell division index (CDI) ([1]; donor 3 without T1D): 0.9
Cell division index (CDI) ([1]; donor 4 without T1D): 1.3
Cell division index (CDI) ([1]; donor 5 without T1D): 1.7
Cell division index (CDI) ([1]; donor 6 without T1D): 7.8
CD4+ T-cell proliferation response compared with WT C-peptide ([2]; PBMC from 8 people with recent onset T1D, Fig. 3A, difference not statistically significant): slightly weaker response
Cell division index (CDI) ([2]; T1D donor 1, mean CDI = proliferated CD4+ T cells with antigen / without antigen): 3.5
Cell division index (CDI) ([2]; T1D donor 2, mean CDI): 8.6
Cell division index (CDI) ([2]; T1D donor 3, mean CDI): 2.1
Cell division index (CDI) ([2]; T1D donor 4, mean CDI): 2.9
Cell division index (CDI) ([2]; T1D donor 5, mean CDI): 4.8
Cell division index (CDI) ([2]; T1D donor 6, mean CDI): 1.5
Cell division index (CDI) ([2]; T1D donor 7, mean CDI): 2.5
Cell division index (CDI) ([2]; T1D donor 8, mean CDI): 15.9
Cell division index (CDI) ([2]; T1D donor 9, mean CDI): 0.3
Cell division index (CDI) ([2]; T1D donor 10, mean CDI): 1.0
Cell division index (CDI) ([2]; T1D donor 11, mean CDI): 1.0
Cell division index (CDI) ([2]; T1D donor 12, mean CDI): 1.4
Cell division index (CDI) ([2]; T1D donor 13, mean CDI): 24.7
Cell division index (CDI) ([2]; T1D donor 14, mean CDI): 15.1
Cell division index (CDI) ([2]; T1D donor 15, mean CDI): 21.3
Cell division index (CDI) ([2]; T1D donor 16, mean CDI): 0.7
Cell division index (CDI) ([2]; T1D donor 17, mean CDI): 2.0
Cell division index (CDI) ([2]; T1D donor 18, mean CDI): 1.5

EAEDLQVGEVELGGGPGAGSLQPLALEGSLQ [Q9E, C-peptide variant with glutamine 9 substituted for glutamic acid]
Cell division index (CDI) ([1]; donor 1 without T1D): 1.0
Cell division index (CDI) ([1]; donor 2 without T1D): 1.4
Cell division index (CDI) ([1]; donor 3 without T1D): 1.2
Cell division index (CDI) ([1]; donor 4 without T1D): 0.8
Cell division index (CDI) ([1]; donor 5 without T1D): 6.1
Cell division index (CDI) ([1]; donor 6 without T1D): 3.4
Cell division index (CDI) ([2]; T1D donor 9, mean CDI): 3.9
Cell division index (CDI) ([2]; T1D donor 10, mean CDI): 1.3
Cell division index (CDI) ([2]; T1D donor 11, mean CDI): 0.8
Cell division index (CDI) ([2]; T1D donor 12, mean CDI): 8.0
Cell division index (CDI) ([2]; T1D donor 13, mean CDI): 38.4
Cell division index (CDI) ([2]; T1D donor 14, mean CDI): 11.1
Cell division index (CDI) ([2]; T1D donor 15, mean CDI): 5.1
Cell division index (CDI) ([2]; T1D donor 16, mean CDI): 3.7
Cell division index (CDI) ([2]; T1D donor 17, mean CDI): 11.3
Cell division index (CDI) ([2]; T1D donor 18, mean CDI): 3.4

EAEDLQVGQVELGGGPGAGSLQPLALEGSLE [Q31E, C-peptide variant with glutamine 31 substituted for glutamic acid]
Cell division index (CDI) ([1]; donor 1 without T1D): 1.3
Cell division index (CDI) ([1]; donor 2 without T1D): 1.7
Cell division index (CDI) ([1]; donor 3 without T1D): 3.6
Cell division index (CDI) ([1]; donor 4 without T1D): 0.8
Cell division index (CDI) ([1]; donor 5 without T1D): 22.3
Cell division index (CDI) ([1]; donor 6 without T1D): 1.9
Cell division index (CDI) ([2]; T1D donor 9, mean CDI): 0.3
Cell division index (CDI) ([2]; T1D donor 10, mean CDI): 2.0
Cell division index (CDI) ([2]; T1D donor 11, mean CDI): 0.9
Cell division index (CDI) ([2]; T1D donor 12, mean CDI): 3.7
Cell division index (CDI) ([2]; T1D donor 13, mean CDI): 11.8
Cell division index (CDI) ([2]; T1D donor 14, mean CDI): 3.6
Cell division index (CDI) ([2]; T1D donor 15, mean CDI): 6.4
Cell division index (CDI) ([2]; T1D donor 16, mean CDI): 1.5
Cell division index (CDI) ([2]; T1D donor 17, mean CDI): 7.6
Cell division index (CDI) ([2]; T1D donor 18, mean CDI): 1.0
